# Positions of bridges follow the written chain, without caps; N, C: chain ends. Non-standard residues stand in square brackets, D forms with d. Residues, ends and D or L forms follow the SMILES beside them. ξ: configuration not given here. ξK = NCCCCC(N)C(=O)O
# How the values were obtained:
# [1] = test system: Trypanosoma brucei brucei; assay: Antitrypanosomal activity against Trypanosoma brucei brucei; type: functional, organism-based
# [2] = Selectivity index, ratio of IC50 for cytotoxicity against human T98G cells to IC50 for antitrypanosomal activity against Trypanosoma brucei brucei; type: toxicity, cell-based; conditions: read-out: Ratio IC50
# Leishmania donovani [3] = assay: Antileishmanial activity against Leishmania donovani promastigotes assessed as parasite growth inhibition; type: functional, organism-based
# Leishmania donovani [4] = assay: Antileishmanial activity against amastigote form of Leishmania donovani assessed as parasite growth inhibition; type: functional, organism-based
# Trypanosoma cruzi [5] = assay: Antitrypanosomal activity against epimastigote form of Trypanosoma cruzi assessed as reduction in parasite growth; type: functional, organism-based
# [6] = test system: Trypanosoma brucei rhodesiense; assay: Antitrypanosomal activity against bloodstream form of Trypanosoma brucei rhodesiense assessed as parasite growth inhibition; type: functional, organism-based
# [7] = Selectivity index, ratio of IC50 for cytotoxicity against rat L6 cells to IC50 for antitrypanosomal activity against bloodstream form of Trypanosoma brucei rhodesiense; type: toxicity, cell-based; conditions: read-out: Ratio IC50
# Trypanosoma cruzi [8] = assay: Antitrypanosomal activity against intracellular Trypanosoma cruzi amastigote assessed as reduction in parasite growth; type: functional, organism-based
# Trypanosoma cruzi [9] = assay: Antitrypanosomal activity against trypomastigote form of Trypanosoma cruzi assessed as reduction in parasite growth; type: functional, organism-based
# [10] = test system: Trypanosoma brucei brucei; assay: Antitrypanosomal activity against bloodstream form of Trypanosoma brucei brucei assessed as reduction in parasite growth; type: functional, organism-based
# Leishmania infantum [11] = assay: Antileishmanial activity against amastigote stage of Leishmania infantum; type: functional, organism-based
# THP-1 = assay: Cytotoxicity against human THP-1 cells; type: functional, cell-based
# [12] = Selectivity index, ratio of IC50 for cytotoxicity against rat L6 cells to IC50 for antileishmanial activity against amastigote form of Leishmania donovani; type: toxicity, cell-based; conditions: read-out: Ratio IC50
# Leishmania donovani [13] = assay: Antileishmanial activity against Leishmania donovani promastigotes infected in golden hamster assessed as reduction in parasite load in spleen at 14.0 mg/kg administered twice per week for 4 weeks relative to control; type: functional; set-up: scale not given: the % may be the effect or the level left
# Leishmania donovani [14] = assay: Antileishmanial activity against amastigote form of Leishmania donovani HU3 infected in Balb/c mouse assessed as parasite growth inhibition at 30 mg/kg, ip for 5 days relative to control; type: functional; conditions: HU3, 120 h, time 5 day
# Trypanosoma brucei = assay: Antitrypanosomal activity against bloodstream form of Trypanosoma brucei assessed as parasite growth inhibition; type: functional, organism-based
# [15] = Selectivity index, ratio of IC50 for cytotoxicity against mouse peritoneal macrophage cells to IC50 for antitrypanosomal activity against bloodstream form of Trypanosoma brucei; type: toxicity, cell-based; conditions: read-out: Ratio IC50
# [16] = Selectivity index, ratio of IC50 for cytotoxicity against mouse peritoneal macrophage cells to IC50 for antileishmanial activity against Leishmania donovani promastigotes; type: toxicity, cell-based; conditions: read-out: Ratio IC50
# Leishmania major = assay: Antileishmanial activity against Leishmania major promastigotes assessed as parasite growth inhibition; type: functional, organism-based
# [17] = Selectivity index, ratio of CC50 for cytotoxicity against rat L6 cells to IC50 for antitrypanosomal activity against bloodstream form of Trypanosoma brucei rhodesiense; type: toxicity, cell-based; conditions: read-out: Ratio CC50/IC50
# Leishmania infantum [18] = assay: Antileishmanial activity against promastigote stage of Leishmania infantum; type: functional, organism-based
# [19] = Selectivity index, ratio of IC50 for cytotoxicity against rat L6 cells to IC50 for antitrypanosomal activity against intracellular Trypanosoma cruzi amastigote; type: toxicity, cell-based; conditions: read-out: Ratio IC50
# Leishmania donovani [20] = assay: Antileishmanial activity against Leishmania donovani promastigotes infected in golden hamster assessed as reduction in parasite load in spleen at 3.5 mg/kg administered twice per week for 4 weeks relative to control; type: functional; set-up: scale not given: the % may be the effect or the level left
# [21] = Selectivity index, ratio of IC50 for cytotoxicity against African green monkey Vero cells to IC50 for antitrypanosomal activity against Trypanosoma cruzi amastigote; type: toxicity, cell-based; conditions: read-out: Ratio IC50
# Trypanosoma cruzi [22] = assay: Antitrypanosomal activity against Trypanosoma cruzi amastigote; type: functional, organism-based
compound,measurement,setting,value
CC1=C\C=C\C[C@H](C)NC(=O)/C=C/C=C/C=C/[C@H](C)[C@@H](O)[C@H](O)[C@H](O)C[C@@H](O)\C=C\C=C\C(C)=C\1,EC50,[1],6.1 µM
same,selectivity ratio,[2],11
CC1CS(=O)(=O)CCN1/N=C/c1ccc([N+](=O)[O-])o1 (configuration not stated) [NIFURTIMOX],EC50,Leishmania donovani [3],0.024 µM
same,EC50,Leishmania donovani [4],0.004 µM
same,EC50,Trypanosoma cruzi [5],1.5 µM
CC/C=C(C)\C=C\CCC[C@]1(OC)C[C@H](C)[C@H](CC(=O)OC)OO1,EC50,[6],0.032 µM
same,selectivity ratio,[7],> 350
C=C1C(=O)O[C@H]2C[C@@](C)(O)C3=CC[C@](C)(O)[C@@H]3C[C@H]12 [GUAIANOLIDE],EC50,Trypanosoma cruzi [8],67 µM
same,EC50,Trypanosoma cruzi [9],5.7 µM
same,EC50,Trypanosoma cruzi [5],18.1 µM
CC/C=C(C)/C=C/CCC[C@]1(OC)C[C@H](C)[C@H](CC(=O)OC)OO1 [MANADOPEROXIDE B],EC50,[6],0.0088 µM
CO/N=c1\[n-]cnc2c1n(C/C=C(\C)CCC=C(C)C)c[n+]2C,EC50,[10],0.5 µM
same,EC50,Trypanosoma cruzi [8],< 0.25 µM
same,EC50,Leishmania infantum [11],2 µM
O=c1c(O)c(-c2cc(O)c(O)c(OS(=O)(=O)O)c2)oc2cc(O)cc(O)c12,EC50,[10],21.4 µM
CC1=C\C=C\C[C@H](C)NC(=O)/C=C/C=C/C=C/[C@H](C)[C@@H](O)[C@H](O)[C@H](O)C[C@@H](O)/C=C\C=C\C(C)=C\1,EC50,[1],0.8 µM
same,selectivity ratio,[2],83
CC/C=C(C)/C=C/CCC[C@]1(OC)C[C@H](C)[C@H](CC(=O)O)OO1,EC50,[6],5.7 µM
same,selectivity ratio,[7],3.8
N=C(N)c1ccc(OCCCCCOc2ccc(C(=N)N)cc2)cc1 [PENTAMIDINE],EC50,THP-1,15.8 µM
COc1cc(-c2oc3cc(O)cc(O)c3c(=O)c2O)ccc1O [ISORHAMNETIN],selectivity ratio,[12],10.7
same,selectivity ratio,[7],4.6
O=c1c(O)c(-c2ccc(O)c(O)c2)oc2cc(O)cc(O)c12 [QUERCETIN],Activity,Leishmania donovani [13],90%
same,EC50,Leishmania donovani [4],3.3 µM
same,inhibition in vivo at 30 mg/kg,Leishmania donovani [14],15%
same,EC50,[10],25.8 µM
C=C1CC[C@H]2C(C)(C)CCC[C@]2(C)[C@H]1CC/C(C)=C/Cn1c[n+](C)c2ncnc(N)c21,EC50,[10],1.8 µM
same,EC50,Trypanosoma cruzi [8],9 µM
same,EC50,Leishmania infantum [11],3 µM
O=c1c(O[C@@H]2O[C@H](CO)[C@@H](O)[C@H](O)[C@H]2O)c(-c2cc(O)c(O)c(O)c2)oc2cc(O)cc(O)c12,EC50,[10],13.1 µM
Cn1c2c3cc(Br)ccc3nc-2cc2cc(Br)ccc21,EC50,Trypanosoma brucei,0.0029 µM
same,selectivity ratio,[15],2080
same,EC50,Leishmania donovani [3],0.5 µM
same,selectivity ratio,[16],18
C=C(C)C(=O)O[C@H]1CC2=C[C@@H](C/C(C)=C/[C@H]3OC(=O)C(=C)[C@H]13)OC2=O,EC50,[6],0.07 µM
same,EC50,Leishmania major,< 0.28 µM
CO[C@@]1(CCCC2(O)C=C(C)C(C)O2)C[C@H](C)[C@H](CC(=O)O)OO1 (some centres not stated),EC50,[6],0.17 µM
same,EC50,[10],0.049 µM
C/C=C(\C)C(=O)O[C@@H]1CC(C(=O)O)=C2C(=O)C=C(C)[C@@H]2[C@H]2OC(=O)[C@H](C)[C@@H]21,EC50,[6],20.7 µM
C[C@@H]1O[C@@H](Oc2cc(O)c3c(=O)c(O)c(-c4ccc(O)c(O)c4)oc3c2)[C@H](O)[C@H](O)[C@H]1O,EC50,[10],20.1 µM
NC[C@@H]1O[C@H](O[C@H]2[C@@H](O)[C@H](O[C@@H]3[C@@H](O)[C@H](N)C[C@H](N)[C@H]3O[C@H]3O[C@H](CO)[C@@H](O)[C@H](O)[C@H]3N)O[C@@H]2CO)[C@H](N)[C@@H](O)[C@@H]1O [PAROMOMYCIN],EC50,[6],22.7 µM
same,EC50,Leishmania donovani [3],0.005 µM
same,EC50,Leishmania donovani [4],0.007 µM
C/C=C(\C)C(=O)O[C@@H]1CC([C@@H](O)C2=CC3OC(=O)C4=C3[C@H]2[C@H]2OC(=O)[C@H](C)[C@@H]2[C@H](OC(=O)/C(C)=C/C)C4)=C2C(=O)C=C(C)[C@@H]2[C@H]2OC(=O)[C@H](C)[C@@H]21 (some centres not stated),EC50,[6],4.5 µM
same,EC50,Leishmania donovani [4],10.2 µM
same,EC50,Trypanosoma cruzi [8],30.3 µM
Cc1cc(O[C@@H]2O[C@@H](C)[C@H](O)[C@@H](O)[C@H]2O)c2c(c1)cc(O[C@@H]1O[C@@H](C)[C@H](O)[C@@H](O)C1O)c1c(=O)c3c(O)cccc3oc12 (some centres not stated),EC50,[10],15.5 µM
Nc1nc([C@H]2[C@H](CNC(=O)c3cc(Br)c[nH]3)[C@@H](CNC(=O)c3cc(Br)c[nH]3)[C@@H]2c2c[nH]c(N)n2)c[nH]1 [SCEPTRIN],EC50,[6],15.7 µM
same,EC50,Leishmania donovani [4],83 µM
same,EC50,Trypanosoma cruzi [8],96 µM
same,selectivity ratio,[17],> 10
C[C@@H]1[C@H](O)[C@@H](C)/C=C/C=C/C=C/C=C/C=C/C=C/C=C/[C@H](O[C@@H]2O[C@H](C)[C@@H](O)[C@H](N)[C@@H]2O)C[C@@H]2O[C@](O)(C[C@@H](O)C[C@@H](O)[C@H](O)CC[C@@H](O)C[C@@H](O)CC(=O)O[C@H]1C)C[C@H](O)[C@H]2C(=O)O [AMPHOTERICIN B],EC50,Leishmania infantum [18],0.04 µM
same,EC50,THP-1,2 µM
CCCCCCCCCCCCCCCCOP(=O)([O-])OCC[N+](C)(C)C [MILTEFOSINE],EC50,THP-1,4.67 µM
same,EC50,Trypanosoma cruzi [5],0.92 µM
CCCCCCC1CCCC(C2CCC([C@H]3CC[C@H]([C@H](O)CCCCCCCCCCCCC4=C[C@H](C)OC4=O)O3)O2)O1 (some centres not stated) [CHAMUVARININ],EC50,[10],1.3 µM
COc1cccc2oc3c(Cl)c(O)c([C@H]4CCC[C@@H](C)O4)c(O)c3c(=O)c12 [CHAETOXANTHONE C],EC50,[6],109 µM
same,EC50,Leishmania donovani [3],7.9 µM
same,EC50,Trypanosoma cruzi [8],3.8 µM
CC(C)[C@@H]1NC(=O)[C@H](C)OC(=O)[C@@H](C(C)C)NC(=O)[C@@H](C(C)C)OC(=O)[C@H](C(C)C)NC(=O)[C@H](C)OC(=O)[C@@H](C(C)C)NC(=O)[C@@H](C(C)C)OC(=O)[C@H](C(C)C)NC(=O)[C@H](C)OC(=O)[C@@H](C(C)C)NC(=O)[C@@H](C(C)C)OC1=O [VALINOMYCIN],EC50,Leishmania major,< 0.11 µM
same,EC50,[10],0.0032 µM
COc1ccc(-c2oc3cc(OC)c(OC)c(O)c3c(=O)c2OC)cc1OC [ARTEMETIN],EC50,[6],12.1 µM
same,selectivity ratio,[7],9.8
COc1ccc2c(=O)cc(-c3ccccc3)oc2c1OC,EC50,[6],21.6 µM
same,selectivity ratio,[7],5
"O=c1cc(-c2ccccc2)oc2c(O)c(O)ccc12 [7,8-DIHYDROXYFLAVONE]",EC50,[6],0.27 µM
same,selectivity ratio,[7],116
O=c1c(O)c(-c2ccccc2)oc2ccccc12 [FLAVONOL],EC50,[6],2.2 µM
same,selectivity ratio,[12],21
same,EC50,Leishmania donovani [4],3 µM
same,selectivity ratio,[19],2
same,selectivity ratio,[7],29
same,EC50,Trypanosoma cruzi [8],33 µM
O=c1cc(-c2ccc(O)c(O)c2)oc2cc(O)cc(O)c12 [LUTEOLIN],EC50,[6],14.1 µM
same,Activity,Leishmania donovani [20],80%
same,selectivity ratio,[12],12
same,EC50,Leishmania donovani [4],2.8 µM
same,selectivity ratio,[7],3
COc1cc2c(c3oc4cccc(O)c4c(=O)c13)[C@@H]1C=CO[C@@H]1O2 [STERIGMATOCYSTIN],selectivity ratio,[21],0.46
same,EC50,Trypanosoma cruzi [22],0.13 µM
C[n+]1c2ccccc2cc2[n-]c3ccccc3c21 [CRYPTOLEPINE],EC50,Trypanosoma brucei,0.3 µM
same,selectivity ratio,[15],29.3
same,EC50,Leishmania donovani [3],1.6 µM
same,selectivity ratio,[16],0.7
"CC[C@H](C)[C@@H]1NC(=O)CNC(=O)[C@H](CCCNC(=N)N)NC(=O)[C@H](Cc2ccc(O)cc2)NC(=O)[C@@H]2CSSC[C@H](NC1=O)C(=O)N[C@@H](Cc1ccc(O)cc1)C(=O)N[C@@H](CCCNC(=N)N)C(=O)N[C@@H](CCCNC(=N)N)C(=O)N[C@H](C(=O)N[C@@H](CCCNC(=N)N)C(N)=O)CSSC[C@H](NC(=O)[C@H](Cc1c[nH]c3ccccc13)NC(=O)C(N)CCCCN)C(=O)N[C@@H](Cc1ccccc1)C(=O)N[C@@H](CCCNC(=N)N)C(=O)N[C@@H](C(C)C)C(=O)N2 (some centres not stated) (H-[ξK]WCFRVCYRGICYRRCR-NH2; disulfide 3-16, 7-12)",EC50,Trypanosoma cruzi [9],9.3 µM
same,EC50,Trypanosoma cruzi [5],47.9 µM
O=C(Cn1ccnc1[N+](=O)[O-])NCc1ccccc1 [BENZNIDAZOLE],EC50,Trypanosoma cruzi [5],9.3 µM
